Tests used:
[1] = molecular target: Aldo-keto reductase family 1 member B1 (Homo sapiens, UniProt P15121); test: Inhibition of human ALR2
[2] = molecular target: ALK tyrosine kinase receptor (Homo sapiens, UniProt Q9UM73, L1196M); test: Inhibition of ALK L1196M mutant (unknown origin)
[3] = Lipophilicity, log D of the compound; type: physicochemical; conditions: octanol/water

Sequence of ALK tyrosine kinase receptor (Q9UM73 19-1620 L1196M limits assumed): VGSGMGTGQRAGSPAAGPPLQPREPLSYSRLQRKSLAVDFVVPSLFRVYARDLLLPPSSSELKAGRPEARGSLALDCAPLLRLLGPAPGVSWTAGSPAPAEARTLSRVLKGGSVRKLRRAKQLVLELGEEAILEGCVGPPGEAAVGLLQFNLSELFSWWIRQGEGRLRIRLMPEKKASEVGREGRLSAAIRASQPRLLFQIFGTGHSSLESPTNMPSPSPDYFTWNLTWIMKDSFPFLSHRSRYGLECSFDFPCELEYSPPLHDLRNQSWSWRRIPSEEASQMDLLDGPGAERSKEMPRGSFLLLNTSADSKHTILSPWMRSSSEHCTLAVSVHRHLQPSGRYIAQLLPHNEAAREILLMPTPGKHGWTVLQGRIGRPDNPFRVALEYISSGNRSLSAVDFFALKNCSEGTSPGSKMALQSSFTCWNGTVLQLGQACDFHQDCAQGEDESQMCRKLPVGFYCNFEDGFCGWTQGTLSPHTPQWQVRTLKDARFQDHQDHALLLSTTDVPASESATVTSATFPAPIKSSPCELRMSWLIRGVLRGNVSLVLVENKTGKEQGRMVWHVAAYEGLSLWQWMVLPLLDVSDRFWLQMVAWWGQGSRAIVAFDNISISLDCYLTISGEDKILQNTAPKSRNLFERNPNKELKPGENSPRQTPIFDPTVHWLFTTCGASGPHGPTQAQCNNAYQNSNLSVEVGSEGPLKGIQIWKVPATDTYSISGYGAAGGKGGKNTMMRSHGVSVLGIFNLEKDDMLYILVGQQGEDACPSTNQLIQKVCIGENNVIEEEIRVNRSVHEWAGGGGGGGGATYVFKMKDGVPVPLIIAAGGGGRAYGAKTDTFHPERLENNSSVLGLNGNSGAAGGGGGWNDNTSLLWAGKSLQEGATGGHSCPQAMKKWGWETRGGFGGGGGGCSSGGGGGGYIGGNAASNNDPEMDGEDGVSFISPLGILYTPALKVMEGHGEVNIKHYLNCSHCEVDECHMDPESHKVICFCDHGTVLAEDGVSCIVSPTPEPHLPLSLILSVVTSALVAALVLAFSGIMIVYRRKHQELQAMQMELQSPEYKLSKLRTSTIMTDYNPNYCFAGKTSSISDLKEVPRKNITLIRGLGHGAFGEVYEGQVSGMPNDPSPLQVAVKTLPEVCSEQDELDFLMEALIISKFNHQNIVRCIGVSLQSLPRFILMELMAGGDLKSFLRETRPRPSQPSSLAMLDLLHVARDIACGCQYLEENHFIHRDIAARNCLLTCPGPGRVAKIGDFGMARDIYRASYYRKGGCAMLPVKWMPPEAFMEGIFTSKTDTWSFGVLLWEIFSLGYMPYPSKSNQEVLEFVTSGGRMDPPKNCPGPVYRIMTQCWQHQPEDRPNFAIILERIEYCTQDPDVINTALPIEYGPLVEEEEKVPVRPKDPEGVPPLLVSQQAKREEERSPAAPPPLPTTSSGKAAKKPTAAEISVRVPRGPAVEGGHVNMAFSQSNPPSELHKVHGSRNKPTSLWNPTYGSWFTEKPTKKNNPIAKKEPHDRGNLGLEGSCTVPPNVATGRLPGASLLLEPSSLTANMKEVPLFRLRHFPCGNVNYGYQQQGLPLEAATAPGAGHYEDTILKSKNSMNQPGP

IC50 [1] | Ki [2] | logD [3] | Compound
550 nM |  |  | O=C(O)COc1cc(Cl)ccc1C(=O)NCc1ccc(Br)cc1
 | 4 nM | 2.2 | C[C@H]1Oc2cc(cnc2N)-c2c(nn(C)c2C#N)CN(C)C(=O)c2ccccc21

Reference: ChEMBL document CHEMBL4118113, “Lipophilic Efficiency as an Important Metric in Drug Design” (J Med Chem, 2018)
